Data taken from patent publication US10584317B2 (priority 2006, dated 2020).
Entries after “also recorded” stand apart in the source; their conditions may differ. Where two headings read alike, the source gives them in different places.

Key:
GI-101A tumors [1] = system: GI-101A tumors; design: species or system nude mice; settings: mouse, in vivo
PANC-1 tumors [2] = type: in vivo, nude mice
A549 tumors = system: A549 tumors; design: species or system nude mice; settings: mouse, in vivo
PANC-1 tumors [3] = system: PANC-1 tumors; design: species or system nude mice; settings: mouse, in vivo
GLV-1h68 = type: cell-based, vaccinia virus
GLV-1h71 = type: cell-based, vaccinia virus
GLV-1h73 = type: cell-based, vaccinia virus
GLV-1h74 = type: cell-based, vaccinia virus
GI-101A tumors [4] = settings: mouse, in vivo

N.N.[Cl][Pt][Cl] [Cisplatin, cis-diamminedichloroplatinum]
Effect on tumor growth (GI-101A tumors [1]): decreased the rate of tumor growth, but did not shrink tumors
Effect on tumor growth (PANC-1 tumors [2]; PANC-1): unable to arrest tumor growth
Median tumor volume (PANC-1 tumors [2]; day 36 post-implantation): 170.2 mm^3
Median tumor volume (PANC-1 tumors [2]; day 46): 296.6 mm^3
Median tumor volume (PANC-1 tumors [2]; day 52): 254.95 mm^3
Median tumor volume (PANC-1 tumors [2]; day 57): 326.2 mm^3
Median tumor volume (PANC-1 tumors [2]; day 63): 460.3 mm^3
Median tumor volume (PANC-1 tumors [2]; day 72): 663.4 mm^3
Median tumor volume (PANC-1 tumors [2]; day 79): 1022.0 mm^3
Median tumor volume (PANC-1 tumors [2]; day 86): 1718.3 mm^3
Median tumor volume (PANC-1 tumors [2]; day 94): 2520.4 mm^3
Median tumor volume (PANC-1 tumors [2]; day 100): 3254.1 mm^3

COc1cccc2c1C(=O)c1c(O)c3c(c(O)c1C2=O)C[C@@](O)(C(=O)CO)C[C@@H]3O[C@H]1C[C@H](N)[C@H](O)[C@H](C)O1 [Doxorubicin, doxorubicin]
Effect on tumor growth (GI-101A tumors [1]): did not have any effect on the rate of tumor growth

Nc1ccn([C@@H]2O[C@H](CO)[C@@H](O)C2(F)F)c(=O)n1 [Gemcitabine]
Effect on tumor growth (A549 tumors): increased tumor growth
Effect on tumor growth (PANC-1 tumors [3]): moderately decreased tumor growth

Nc1ccn(C[C@@H](CO)OCP(=O)(O)O)c(=O)n1 [cidofovir]
Plaque formation by GLV-1h68 (GLV-1h68): smaller plaques; also recorded: almost completely inhibited
Size or number of plaques of GLV-1h68 vs control (GLV-1h68): no significant differences
Plaque formation by GLV-1h71 (GLV-1h71): smaller plaques; also recorded: almost completely inhibited
Size or number of plaques of GLV-1h71 vs control (GLV-1h71): no significant differences
Number and size of plaques of GLV-1h73 (GLV-1h73): significantly reduced
Plaque formation by GLV-1h73 (GLV-1h73): smaller plaques
Size or number of plaques of GLV-1h73 vs control (GLV-1h73): no significant differences
Number and size of plaques of GLV-1h74 (GLV-1h74): significantly reduced
Plaque formation by GLV-1h74 (GLV-1h74): smaller plaques
Size or number of plaques of GLV-1h74 vs control (GLV-1h74): no significant differences
Interference with tumor therapy by the virus (GI-101A tumors [4]): did not significantly interfere
Survival time of GLV-1h74 injected mice (GI-101A tumors [4]): significantly extended
